In the supplement of paper PMC8882468:
Values joined by “and” are separate entries in the source; they are usually repeats but may differ in a detail not shown here. Equal entries are not always repeated. ± gives the standard deviation of the averaged measurements.

Tests used:
Assay in all cases: CTG-3D luminescence at 96 h relative to day-0 seeding control (ratio to day 0); higher = more growth / less cytotoxicity; PDxO 3D drug screen (set 2), 96 h, CTG-3D normalised to day-0 seeding control.
HCI-010 = tested on: HCI-010 (organoid from a breast cancer xenograft)
HCI-001 = tested on: HCI-001 (organoid from a triple-negative breast cancer xenograft)
MDA-MB-231 = tested on: MDA-MB-231
HCI-017.E2 = tested on: HCI-017.E2 (organoid from an ER-positive breast cancer xenograft)
HCI-023 = tested on: HCI-023 (organoid from a triple-negative breast cancer xenograft)

CC(=O)c1c(C)c2cnc(Nc3ccc(N4CCNCC4)cn3)nc2n(C2CCCC2)c1=O [palbociclib]
CTG-3D luminescence at 96 h
Conditions | 12.5 pM | 0.00025 µM | 0.005 µM | 0.1 µM | 1 µM | 10 µM | 100 µM | 625 fM
HCI-001, days in culture: 365 | 2.73 | 2.25 | 2.7 | 2.64 | 2.4 | 1.89 | 1.62 | 2.11
HCI-001, days in culture: 397 | 1.74 | 2.12 | 2.31 | 2.47 | 2.46 | 2 | 1.24 | 1.26
HCI-001, days in culture: 401 | 1.54 | 2.13 | 1.58 | 1.85 | 1.33 | 1.58 | 0.962 | 1.63
HCI-010, days in culture: 79 | 1.68 | 1.69 | 1.79 | 1.9 | 1.71 | 1.47 | 0.772 | 1.88
HCI-010, days in culture: 86 | 2.36 | 2.42 | 2.72 | 2.52 | 2.49 | 2.34 | 1.26 | 2.21
HCI-010, days in culture: 102 | 1.09 | 1.35 | 1.2 | 1.65 | 1.56 | 1.54 | 0.787 | 1.15
HCI-010, days in culture: 164 | 1.31 | 1.57 | 1.74 | 1.67 | 1.73 | 1.25 | 0.562 | 1.37
HCI-017.E2, days in culture: 85 | 2.34 | 1.47 | 2.15 | 2.41 | 1.66 | 1.8 | 1.58 | 1.96
HCI-023, days in culture: 223 | 2.23 | 2.46 | 1.71 | 1.94 | 1.21 | 1.61 | 1.04 | 1.86
HCI-023, days in culture: 238 | 1.53 | 1.27 | 1.67 | 1.48 | 1.87 | 1.53 | 0.908 | 1.59
HCI-023, days in culture: 252 | 2.28 | 1.93 | 1.66 | 1.79 | 1.79 | 1.92 | 1.35 | 1.91

CTG-3D luminescence at 96 h
Conditions | 12.5 pM | 0.00025 µM | 0.005 µM | 0.1 µM | 1 µM | 10 µM | 100 µM | 625 fM
HCI-017.E2 | 2 ± 0.16 | 2.45 ± 0.34 | 2.1 ± 0.028 | 2.37 ± 0.17 | 1.98 ± 0.21 | 2.346 ± 0.0064 | 1.25 ± 0.19 | 2.23 ± 0.092
MDA-MB-231 | 5.2 ± 2.5 | 5.24 ± 2.5 | 5.27 ± 2.8 | 5.18 ± 2 | 5.16 ± 2.3 | 4.35 ± 1.2 | 1.02 ± 0.14 | 5.32 ± 2.8

Cc1c(CN2CCN(C(=O)[C@H](C)O)CC2)sc2c(N3CCOCC3)nc(-c3cnc(N)nc3)nc12 [apitolisib]
CTG-3D luminescence at 96 h
Conditions | 12.5 pM | 0.00025 µM | 0.005 µM | 0.1 µM | 1 µM | 10 µM | 100 µM | 625 fM
HCI-001, days in culture: 365 | 2.58 | 2.24 | 2.1 | 1.76 | 0.879 | 0.659 | 0.623 | 1.4
HCI-001, days in culture: 397 | 1.85 | 1.88 | 1.62 | 1.89 | 0.725 | 0.643 | 0.29 | 1.38
HCI-001, days in culture: 401 | 1.46 | 1.75 | 1.41 | 1.57 | 0.609 | 0.676 | 0.517 | 1.65
HCI-010, days in culture: 79 | 1.94 | 1.83 | 1.96 | 1.68 | 0.503 | 0.107 | 0.0163 | 2.13
HCI-010, days in culture: 86 | 2.03 | 2.34 | 2.49 | 1.94 | 0.554 | 0.242 | 0.088 | 2.27
HCI-010, days in culture: 102 | 1.17 | 1.35 | 1.21 | 0.954 | 0.286 | 0.0291 | 0.0044 | 0.944
HCI-010, days in culture: 164 | 1.71 | 1.39 | 1.57 | 1.27 | 0.641 | 0.265 | 0.0363 | 1.33
HCI-017.E2, days in culture: 85 | 2.14 | 1.73 | 1.52 | 1.36 | 0.359 | 0.278 | 0.161 | 2.09
HCI-023, days in culture: 223 | 2.19 | 2.65 | 1.81 | 1.85 | 0.861 | 0.971 | 0.469 | 2.04
HCI-023, days in culture: 238 | 1.77 | 1.62 | 1.45 | 1.58 | 1.5 | 0.763 | 0.38 | 1.65
HCI-023, days in culture: 252 | 1.95 | 1.92 | 1.7 | 2.06 | 1.62 | 0.654 | 0.459 | 1.97

CTG-3D luminescence at 96 h
Conditions | 12.5 pM | 0.00025 µM | 0.005 µM | 0.1 µM | 1 µM | 10 µM | 100 µM | 625 fM
HCI-017.E2 | 2.28 ± 0.3 | 2.54 ± 0.27 | 2.21 ± 0.025 | 1.43 ± 0.29 | 0.397 ± 0.021 | 0.399 ± 0.008 | 0.223 ± 0.028 | 2.43 ± 0.34
MDA-MB-231 | 5.6 and 5.03 | 5.7 and 4.98 | 5.72 and 5.32 | 5.01 and 4.5 | 2.91 and 2.98 | 2.31 and 2.38 | 0.873 and 0.875 | 5.53 and 5.09
